# Assay results reported in US8513271B2, “Pyrimidine compounds as delta opioid receptor modulators” (Janssen Pharmaceutica, NV, priority 2009, dated 2013).
# Like-named read-outs stand apart in the source and are kept apart here.
# What was measured:
# delta opioid receptor [1] = target: T1, delta opioid receptor (Rattus norvegicus, UniProt P33533); experiment: Rat brain delta opioid receptor binding assay; settings: rat forebrain
# T1 construct: the forebrains were homogenized in Tris buffer in a Teflon®-glass homogenizer; from tissue; host or cells: forebrain of male Wistar rats, particulate (membrane) preparation
# T1 sequence (P33533 whole entry): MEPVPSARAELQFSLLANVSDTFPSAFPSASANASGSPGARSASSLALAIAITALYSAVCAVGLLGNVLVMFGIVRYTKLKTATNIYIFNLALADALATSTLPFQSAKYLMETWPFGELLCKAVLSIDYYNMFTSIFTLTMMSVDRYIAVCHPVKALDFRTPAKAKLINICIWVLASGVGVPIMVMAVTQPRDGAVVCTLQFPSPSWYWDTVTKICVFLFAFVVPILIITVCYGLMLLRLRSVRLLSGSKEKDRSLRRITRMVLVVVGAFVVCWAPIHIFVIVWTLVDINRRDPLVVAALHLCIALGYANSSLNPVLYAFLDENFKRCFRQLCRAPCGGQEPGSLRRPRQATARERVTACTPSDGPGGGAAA
# delta opioid receptor [2] = target: T2, delta opioid receptor (Mus musculus, UniProt P32300); experiment: [35S]GTPγS binding assay in NG108-15 cell membranes (delta opioid functional assay), 200 nM screen; type: biochemical; settings: NG108-15 cell membranes
# T2 construct: NG108-15 cell membranes were purchased from Applied Cell Sciences (Rockville, Md.); host or cells: NG108-15 cell membranes
# T2 sequence (P32300 whole entry): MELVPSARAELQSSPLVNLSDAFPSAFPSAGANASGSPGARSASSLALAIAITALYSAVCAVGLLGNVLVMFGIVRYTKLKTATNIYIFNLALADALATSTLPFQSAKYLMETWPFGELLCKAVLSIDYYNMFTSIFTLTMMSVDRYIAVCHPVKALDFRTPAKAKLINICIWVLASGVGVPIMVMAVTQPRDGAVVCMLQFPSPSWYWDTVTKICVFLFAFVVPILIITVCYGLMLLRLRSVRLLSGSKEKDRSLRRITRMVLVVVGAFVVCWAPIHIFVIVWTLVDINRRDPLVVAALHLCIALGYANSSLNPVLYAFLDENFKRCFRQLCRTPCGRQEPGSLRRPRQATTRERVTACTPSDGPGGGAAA
# mu opioid receptor = target: T3, mu opioid receptor (Rattus norvegicus, UniProt P33535); experiment: Rat brain mu opioid receptor binding assay; settings: rat forebrain, [3H]DAMGO ligand
# T3 construct: the forebrains were homogenized in Tris buffer in a Teflon®-glass homogenizer; from tissue; host or cells: forebrain of male Wistar rats, particulate (membrane) preparation
# T3 sequence (P33535 whole entry): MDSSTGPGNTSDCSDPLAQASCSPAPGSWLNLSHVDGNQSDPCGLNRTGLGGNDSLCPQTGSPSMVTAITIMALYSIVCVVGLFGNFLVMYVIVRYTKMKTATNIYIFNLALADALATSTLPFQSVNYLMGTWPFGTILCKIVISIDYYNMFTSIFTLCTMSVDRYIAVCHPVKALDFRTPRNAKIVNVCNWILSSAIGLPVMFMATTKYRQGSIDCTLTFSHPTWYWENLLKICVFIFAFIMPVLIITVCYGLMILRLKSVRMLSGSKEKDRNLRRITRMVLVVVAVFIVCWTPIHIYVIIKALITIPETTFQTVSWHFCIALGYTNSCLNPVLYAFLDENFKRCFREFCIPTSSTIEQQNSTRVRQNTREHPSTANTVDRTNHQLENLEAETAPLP
# [3] = [3H]naltrindole ligand, read-out: δ-binding (Naltrindole ligand) Ki
# [4] = [3H]DPDPE ligand, read-out: δ-binding (DPDPE ligand) Ki
# [5] = δ-binding (Naltrindole ligand) Ki, [3H]naltrindole ligand
Structure (SMILES),Ki (mu opioid receptor; read-out: μ-binding Ki) [nM],Ki (delta opioid receptor [1]; [5]) [nM],further results
COc1ccc(Oc2nc(-c3cncc(C#N)c3)ncc2NCC2COCCN2)cc1 (racemic) [Cpd 279],,,"Ki (delta opioid receptor [1]; [3]): 5 nM; EC50 (delta opioid receptor [2]; averages if tested more than once, read-out: GTPγS δ-opioid receptor EC50): 170 nM; GTPγS δ-opioid receptor Rel Efficacy (delta opioid receptor [2]; relative efficacy from dose response): 1.004"
COc1ccc(Oc2nc(-c3ccc(OC)cc3)ncc2NC[C@@H]2CCCN2)cc1 [Cpd 1],3230,,Ki (delta opioid receptor [1]; [4]): 363 nM
COc1ccc(Oc2nc(-c3cccc(OC)c3)ncc2NC[C@@H]2CCCN2)cc1 [Cpd 3],2340,,Ki (delta opioid receptor [1]; [4]): 142 nM
COc1ccc(Oc2nc(-c3ccccc3OC)ncc2NC[C@@H]2CCCN2)cc1 [Cpd 4],> 10000,,Ki (delta opioid receptor [1]; [4]): 2220 nM
COc1ccc(Oc2nc(-c3ccc4ccccc4c3)ncc2NC[C@@H]2CCCN2)cc1 [Cpd 6],9010,,Ki (delta opioid receptor [1]; [3]): 116 nM
COc1ccc(Oc2nc(-c3ccsc3)ncc2NC[C@@H]2CCCN2)cc1 [Cpd 9],2970,,Ki (delta opioid receptor [1]; [3]): 1 nM
COc1ccc(Oc2nc(-c3ccoc3)ncc2NC[C@@H]2CCCN2)cc1 [Cpd 10],2000,34,
FC(F)(F)Oc1ccc(Oc2nc(-c3cccnc3)ncc2NC[C@@H]2CCCN2)cc1 [Cpd 11],3080,5,
NC(=O)c1ccc(Oc2nc(-c3cccnc3)ncc2NC[C@@H]2CCCN2)cc1 [Cpd 12],4520,18,
CC(=O)Nc1ccc(Oc2nc(-c3cccnc3)ncc2NC[C@@H]2CCCN2)cc1 [Cpd 13],5570,,Ki (delta opioid receptor [1]; [3]): 2 nM
c1ccc(Oc2nc(-c3cccnc3)ncc2NC[C@@H]2CCCN2)cc1 [Cpd 14],1730,1,
COc1ccc(Oc2nc(-c3cccc(O)c3)ncc2NC[C@@H]2CCCN2)cc1 [Cpd 15],416,0.1,
COc1ccc(Oc2nc(-c3cccc4ncccc34)ncc2NC[C@@H]2CCCN2)cc1 [Cpd 16],1320,14,
COc1ccc(Oc2nc(-c3cccc4cccnc34)ncc2NC[C@@H]2CCCN2)cc1 [Cpd 17],3080,30,
COc1ccc(Oc2nc(-c3cccc4nc(C)ccc34)ncc2NC[C@@H]2CCCN2)cc1 [Cpd 18],2240,,Ki (delta opioid receptor [1]; [3]): 172 nM
COc1ccc(Oc2nc(-c3ccc(-c4ccccc4)cc3)ncc2NC[C@@H]2CCCN2)cc1 [Cpd 19],8080,,Ki (delta opioid receptor [1]; [3]): 201 nM
COc1ccc(Oc2nc(-c3ccc4sc5ccccc5c4c3)ncc2NC[C@@H]2CCCN2)cc1 [Cpd 21],2390,,Ki (delta opioid receptor [1]; [3]): 201 nM

Structure (SMILES),Ki (mu opioid receptor; read-out: μ-binding Ki) [nM],Ki (delta opioid receptor [1]; [5]) [nM],further results
COc1ccc(Oc2nc(-c3cnc(O)nc3O)ncc2NC[C@@H]2CCCN2)cc1 [Cpd 27],15500,,Ki (delta opioid receptor [1]; [3]): 2570 nM
COc1ccc(Oc2nc(-c3cccc(C#N)c3)ncc2NC[C@@H]2CCCN2)cc1 [Cpd 28],295,6.1,
COc1ccc(Oc2nc(-c3cccc([N+](=O)[O-])c3)ncc2NC[C@@H]2CCCN2)cc1 [Cpd 29],2660,86,
COc1ccc(Oc2nc(-c3cccc(C(N)=O)c3)ncc2NC[C@@H]2CCCN2)cc1 [Cpd 30],1090,3,
CCN(CC)C(=O)c1cccc(-c2ncc(NC[C@@H]3CCCN3)c(Oc3ccc(OC)cc3)n2)c1 [Cpd 31],837,31,
COc1ccc(Oc2nc(-c3cccc(S(C)(=O)=O)c3)ncc2NC[C@@H]2CCCN2)cc1 [Cpd 32],,12.6,Ki (mu opioid receptor; μ-binding Ki): 64.1 nM
COc1ccc(Oc2nc(-c3ccc(O)cc3)ncc2NC[C@@H]2CCCN2)cc1 [Cpd 33],,29,Ki (mu opioid receptor; μ-binding Ki): 29 nM
COc1ccc(Oc2nc(-c3ccc4[nH]ccc4c3)ncc2NC[C@@H]2CCCN2)cc1 [Cpd 34],,15,Ki (mu opioid receptor; μ-binding Ki): 15 nM
"COc1ccc(Oc2nc(-c3noc(=O)[nH]3)ncc2NC[C@@H]2CCCN2)cc1 [Cpd 35, 3-{4-(4-Methoxy-phenoxy)-5-[(pyrrolidin-2-(S)-ylmethyl)-amino]-pyrimidin-2-yl}-4H-[1,2,4]oxadiazol-5-one]",184,,Ki (delta opioid receptor [1]; [3]): 184 nM
Fc1ccc(Oc2nc(-c3cccnc3)ncc2NC[C@@H]2CCCN2)cc1 [Cpd 36],4770,3,
COc1ccc(-c2ncc(NC[C@@H]3CCCN3)c(Oc3ccc(F)cc3)n2)cn1 [Cpd 37],> 10000,10,
COc1ccc(Oc2nc(-c3cccc(F)c3)ncc2NC[C@@H]2CCCN2)cc1 [Cpd 38],4910,1,
COc1ccc(-c2ncc(NC[C@@H]3CCCN3)c(Oc3ccccc3OC)n2)cn1 [Cpd 39],8990,67,
COc1ccccc1Oc1nc(-c2cccnc2)ncc1NC[C@@H]1CCCN1 [Cpd 40],7640,93,
COc1ccc(Oc2nc(-c3cccc(NC(C)=O)c3)ncc2NC[C@@H]2CCCN2)cc1 [Cpd 42],1230,16,
COc1ccc(Oc2nc(-c3ccc(NC(C)=O)cc3)ncc2NC[C@@H]2CCCN2)cc1 [Cpd 43],523,4,
